According to patent US7569695B2, “Dyes for the detection or quantification of desirable target molecules” (Enzo Life Sciences, Inc., priority 2005, dated 2009):

Test system: 78 bp amplicon from the anti-sense C construct
Experiment: Amplification of nucleic acids on the Light Cycler in the presence of dye (Example 33)
Assay type: biochemical
Description: A target template was amplified on the Light Cycler (Roche) in the presence of various amounts of Dye 109 from Example 14. As a control, various amounts of SYBR Green (Molecular Probes, Eugene, Oreg.) were also included. The template was a 1:500 dilution of a 78 bp amplicon made in a previous reaction from the anti-sense C construct described in Liu et al. 1997 (J. Virol. 71: 4079-4085). A 2×PCR mix was made up of 20 mM Tris pH 8.3, 50 mM KCl, 4 mM MgCl2, 0.4 mM dCTP, 0.4 mM dGTP, 0.4 mM dATP, 0.8 mM dUTP, […] and […].
The Forward Primer sequence is comprised of 20 nucleotides: 5′ […] 3′ (SEQ ID NO: 1). It is an artificial sequence comprising a fusion of human Ul and HIV sequences. Bases 1-7 (CATGATC) of the first sequence are derived from plasmid pHSD-4 and comprise sequences from the human Ul gene. Bases […] (GATCCGGATGGGAGGTG) of the second sequence are derived from a region of the BAL strain of HIV containing the Tat/Rev splice acceptor site.
The Reverse Primer sequence is comprised of 22 nucleotides: 5′[…] (SEQ ID NO: 2). It is an artificial sequence comprising a fusion of human Ul and HIV sequences. Bases 1-11 (GCACATCCGGA) of the first sequence are derived from plasmid pHSD-4 and comprise sequences from the human Ul gene. Bases […] (GATCCGGATGGGAGGTG) of the second sequence are derived from a region of the BAL strain of HIV containing the Tat/Rev splice acceptor site.
The 78 bp amplicon synthesized with Forward Primer (SEQ ID NO: 1) and Reverse Primer (SEQ ID NO: 2) has the following sequence: 5′ […] 3′ (SEQ ID NO: 3). It is an artificial sequence comprising a fusion of human Ul and HIV sequences. Bases 1-11 (GCACATCCGGA) and 68-78 (TCCGGATGTGC) are derived from plasmid pHSD-4 and comprise sequences from the human Ul gene. Bases […] are derived from a region of the BAL strain of HIV containing the Tat/Rev splice acceptor site.
A master mixture was made up of: • 350 µl of 2×PCR mix described above • 14 µl of 25 mM MgCl2 • 122.5 µl of DEPC treated H2O • 14 ul of 1 u/l ung (Epicentre) • 7 µl of 10 mg/ml BSA (New England Biolabs, Beverly, Mass.) • 7 l Taq polymease (Perkin Elmer)+7 µl of TaqStart (Clontech) • 2.5 µl of target template+2.0 l of various dilutions of dyes were added to 15.5 µl of Master mixture, incubated at 45° C. for 10 minutes and then amplified by: • 1) Melting • 2 minutes @ 95° C. • 2) Cycling • a) Denaturation step: 0 seconds @ 95° C. • b) Annealing step: 5 seconds @ 69° C. for first cycle; subsequent cycles were each reduced by 0.5° C. until 65° C. was reached and all annealing steps in further cycles were carried out at this temperature • c) Extension step: 5 seconds @ 72° C. • 3) After completion of 56 cycles, all samples were maintained at 4° C. until analyzed.
After the amplification reactions were finished, the samples were analyzed by gel electrophoresis. For SYBR Green, the recommended reaction concentration is 1:10,000. As such, the amplification products shown in lanes 5 and 6 using 2 l of […] dilution in a 20 l reaction (final=1:8,000) is approximately representative of the product from the standard procedure. For Dye 109, the reactions are listed in terms of dilutions of a stock of Dye 109 with an OD reading of 200 taken at 495 nm. […] However, when lower dilutions of the dyes were added there was no inhibition of the process.

[1] = 1:200 dilution of SYBR Green, lane 7

With `CCCN(CCCN(C)C)c1cc(/C=C2/Sc3ccccc3N2C)c2ccccc2[n+]1-c1ccccc1` [SYBR Green, reference compound] the “amplification (gel analysis, FIG. 1)” value (1:20 dilution of SYBR Green, 56 cycles) was “strong inhibition of amplification”, the “synthesis of non-target derived amplicons” value [1] was “elimination or suppression of the synthesis of non-target derived amplicons” and the “synthesis of target derived amplicons compared to the reaction without any dye” value [1] was “enhancement of overall synthesis of target derived amplicons”.
